Test results as given in ChEMBL document CHEMBL5729557, “5-membered heteroaryl carboxamide compounds for treatment of HBV” (2023).
“And” between values parts separate entries of the source, which are not always exact repeats. Equal values may be shown once.

Experiment: Assay Measuring Activity of Test Compounds on Viral Production from HepAD38 Cells: HepAD38 cells grown in a T-150 flask (Corning, cat #: 430825) with Growth Medium (DMEM/F12 (1:1) (Hyclone, cat #: SH30023.02), 1× Pen/Strep (Invitrogen, cat #: 15140-122), 10% FBS (Tissue Culture Biologics, cat #: 101), 250 μg/mL G418 (Alfa Aesar, cat #: J62671), 1 μg/mL Tetracycline (Teknova, cat #: T3320)) were detached with 0.25% trypsin-EDTA to (Invitrogen, cat #: 25200-056). Tetracycline-free treatment medium (15 mL DMEM/F12 (1:1) 1× Pen/step, with 2% FBS, Tet-system approved (Clontech, cat #: 631106) were then added to mix, transferred into a 50 ml conical tube (Falcon, cat #: 21008-918,) and spun at 1300 rpm for 5 min. Pelleted cells were then re-suspended/washed with 50 mL of 1×DPBS (Invitrogen, cat #: 14190-136) 2 times and 50 mL treatment medium twice. HepAD38 cells were then re-suspended with 10 mL of treatment medium, syringed and counted. Wells of 96-well clear bottom TC plate (Corning, cat #: 3904,) were seeded at 50,000 cells/well in 180 μL of treatment medium, and 20 μL of either 10% DMSO (Sigma, cat #: D4540) as controls or a 10× solution of test compounds in 10% DMSO in treatment media was added for a final compound concentration starting at 10 μM, and plates were incubated in 5% CO2 incubator at 37° C. for 5 days.Subsequently viral load production was assayed by quantitative PCR (qPCR) of the HBV core sequence. PCR reaction mixture containing forward primers HBV-f 5′-CTGTGCCTTGGGTGGCTTT-3′ (IDT DNA), Reverse primers HBV-r 5′-[…]-3′ (IDT DNA), Fluorescent TaqMan™ Probes HBV-probe 5′-FAM/AGCTCCAAA/ZEN/[…]/3IABkFQ-3′ (IDT DNA), 10 μL/well of PerfeCTa® qPCR ToughMix® (Quanta Biosciences, Cat #: 95114-05K), and 6 μL/well of DEPC water (Alfa Aesar, cat #: J62087) was prepared. […] of supernatant was added to 16 μL of the reaction mixture in a qPCR plate (Applied Biosytems, Cat #: 4309849), sealed with a film (Applied Biosystems, Cat #: 4311971), centrifuged for a few seconds, and subsequently run on an Applied Biosystems VIIA7. The PCR mixture was incubated at 45° C. for 5 min, then 95° C. for 10 min, followed by 40 cycles of 10 seconds at 95° C. and 20 seconds at 60° C. Viral load was quantified against known HBV DNA standards by using ViiA™ 7 Software. Viral load in the supernatant from wells with treated cells were compared against viral load in supernatant from DMSO control wells (>3 per plate). Cell viability assay was performed with CellTiter-Glo Luminescent Cell Viability Assay (Promega, cat #: G7573) with modification. Mixed appropriate amount of CellTiter-Glo (CTG) 1×DPBS in a 1:1 ratio, added 100 uL of the mixture to each well followed completely removal of all supernatant in each well without touching cell surface. Incubated the plate at room temperature for 10 min on an orbital shaker, and then read the plate with a plate reader (TECAN M1000 or Envision).
Settings: not given
With `Cn1nc(C2CC3CC(O)(CS(=O)(=O)NC4CC4)CC3C2)c(C(=O)Nc2ccc(F)c(Cl)c2)c1N` (configuration not stated) the EC50 was “in the range around 300 nM and < 100 nM”.

Same assay, conditions: HePAD38
In the case of `Cn1nc([C@@H]2CC3CC(O)(CN4CCOCC4)C[C@H]3C2)c(C(=O)Nc2ccc(F)c(Cl)c2)c1N` (some centres not stated), the EC50 is reported as “in the range around 300 nM”.
Work on `Cn1nc([C@@H]2CC3CC(O)(CSCC(F)(F)F)C[C@@H]3C2)c(C(=O)Nc2ccc(F)c(Cl)c2)c1N` (some centres not stated) yielded an EC50 of less than 100 nM.
With `CC(=O)N1CC2CC(c3nn(C)c(N)c3C(=O)Nc3ccc(F)c(Cl)c3)CC2C1` (configuration not stated) the EC50 was less than 100 nM.
`CCS(=O)(=O)CC1(O)CC2C[C@@H](c3nn(C)c(N)c3C(=O)Nc3ccc(F)c(Cl)c3)C[C@H]2C1` (some centres not stated) gave an EC50 of less than 100 nM.
Work on `Cn1nc(C2CC3CN(C(=O)N4CCCC4)CC3C2)c(C(=O)Nc2ccc(F)c(Cl)c2)c1N` (configuration not stated) yielded an EC50 of less than 100 nM.
For `Cn1nc(C2CC3CC(N)CC3C2)c(C(=O)Nc2ccc(F)c(Cl)c2)c1N` (configuration not stated), the EC50 was “in the range around 300 nM”.
For `CCS(=O)(=O)CC1(O)CC2C[C@@H](c3nn(C)c(N)c3C(=O)Nc3ccc(F)c(Cl)c3)C[C@@H]2C1` (some centres not stated), the EC50 was less than 100 nM.
With `COCCOc1ccc(C2CCC(c3nn(C)c(N)c3C(=O)Nc3ccc(F)c(Cl)c3)C2)cc1` (configuration not stated) the EC50 was less than 100 nM.
`CCC1OCC2(CC3C[C@H](c4nn(C)c(N)c4C(=O)Nc4ccc(F)c(Cl)c4)C[C@@H]3C2)O1` (some centres not stated) gave an EC50 of less than 100 nM.
For `Cn1nc([C@@H]2CC3CC(O)(CS(C)(=O)=O)C[C@H]3C2)c(C(=O)Nc2ccc(F)c(Cl)c2)c1N` (some centres not stated), the EC50 was less than 100 nM.
With `COc1cc(-c2cscn2)ccc1C1CCC(c2nn(C)c(N)c2C(=O)Nc2ccc(F)c(Cl)c2)C1` (configuration not stated) the EC50 was less than 100 nM.
In the case of `Cn1nc(C2CCC(c3csc(C(F)(F)F)n3)C2)c(C(=O)Nc2ccc(F)c(Cl)c2)c1N` (configuration not stated), the EC50 is reported as “in the range around 5250 nM”.
In the case of `COc1cc(-c2c[nH]cn2)ccc1[C@H]1CC[C@@H](c2nn(C)c(N)c2C(=O)Nc2ccc(F)c(Cl)c2)C1`, the EC50 is reported as “in the range around 300 nM”.
Molecule `Cn1nc(C2CC3CC(C#N)CC3C2)c(C(=O)Nc2ccc(F)c(Cl)c2)c1N` (configuration not stated) has an EC50 of less than 100 nM.
In the case of `Cn1nc(C2CC3CC(C(N)=O)CC3C2)c(C(=O)Nc2ccc(F)c(Cl)c2)c1N` (configuration not stated), the EC50 is reported as less than 100 nM.
With `CC(C)Oc1ccc(C2CCC(c3nn(C)c(N)c3C(=O)Nc3ccc(F)c(Cl)c3)C2)cc1` (configuration not stated) the EC50 was less than 100 nM.
In the case of `Cn1nc([C@@H]2CC3C[S+]([O-])C[C@H]3C2)c(C(=O)Nc2ccc(F)c(Cl)c2)c1N` (some centres not stated), the EC50 is reported as “in the range around 5250 nM”.
`Cn1nc(C2CC3CC(O)(C4CC4)CC3C2)c(C(=O)Nc2ccc(F)c(Cl)c2)c1N` (configuration not stated) gave an EC50 of less than 100 nM.
Molecule `Cn1nc([C@H]2C[C@@H](c3ccccc3)C2)c(C(=O)Nc2ccc(F)c(Cl)c2)c1N` has an EC50 of less than 100 nM.
In the case of `COc1cccc([C@H]2CC[C@H](c3nn(C)c(N)c3C(=O)Nc3ccc(F)c(Cl)c3)C2)c1`, the EC50 is reported as less than 100 nM.
With `Cn1nc([C@@H]2CC3CC(O)(CN4CCCCC4)C[C@@H]3C2)c(C(=O)Nc2ccc(F)c(Cl)c2)c1N` (some centres not stated) the EC50 was “in the range around 300 nM”.
With `Cn1nc([C@@H]2CC3CC(O)(CN4CCOCC4)C[C@@H]3C2)c(C(=O)Nc2ccc(F)c(Cl)c2)c1N` (some centres not stated) the EC50 was “in the range around 5250 nM”.
`Cn1nc(C2CC3CC(OCC(F)(F)F)CC3C2)c(C(=O)Nc2ccc(F)c(Cl)c2)c1N` (configuration not stated) showed an EC50 of less than 100 nM.
With `Cn1nc(C2CC3CC(CCO)CC3C2)c(C(=O)Nc2ccc(F)c(Cl)c2)c1N` (configuration not stated) the EC50 was less than 100 nM.
`Cn1nc([C@@H]2CC3CC(O)(CS(=O)(=O)C4CC4)C[C@H]3C2)c(C(=O)Nc2ccc(F)c(Cl)c2)c1N` (some centres not stated) gave an EC50 of less than 100 nM.
`Cn1nc(C2CC3CC(n4cccn4)CC3C2)c(C(=O)Nc2ccc(F)c(Cl)c2)c1N` (configuration not stated) gave an EC50 of less than 100 nM.
